Measured values: ChEMBL document CHEMBL6121051, “Dendritic Antifungal Peptides as Potent Agents against Drug-Resistant Candida albicans and Biofilm” (J Med Chem, 2025)
Values after ≈ are worked out from the molar mass of the structure shown. Active and inactive are the calls of the source. The calls are words filed in the database; no cut-off is given here. Positions of bridges follow the written chain, without caps; N, C: chain ends. Residues, ends and D or L forms follow the SMILES beside them. Chains are numbered I, II in the order given. *: point of attachment. Butyryl = CCCC(=O)*

Legend:
Candida albicans [1] = assay: Induction of morphological changes in Candida albicans 2.2086 at 8 to 16 uM incubated for 2 hrs by fluorescence cell imaging system; format: functional, organism-based; conditions: dose 8-16 µM
Cell membrane [2] = assay: Disruption of cytoplasmic membrane in Candida albicans 2.2086 assessed as increase in membrane depolarization at 1XMIC to 4XMIC measured after 500 secs by diSC3-5 dye based potentiometric analysis; format: subcellular; conditions: time 500.0 sec
Candida albicans [3] = assay: Antifungal activity against Candida albicans assessed as inhibition of fungal growth incubated for 48 hrs in presence of MgCl2; format: functional, organism-based
[4] = Drug penetration into mature fluconazole-resistant Candida albicans 56214 biofilms assessed as increase in green fluorescence intensity at 8 to 16 uM using FITC-labeled compound incubated in dark for 3 hrs by DAPI staining based laser confocal microscopy; format: ADME; conditions: dose 8-16 µM
Candida albicans [5] = assay: Antifungal activity against Candida albicans 2.3989 assessed as inhibition of fungal growth incubated for 48 hrs; format: functional
Cell wall [6] = assay: Induction of cell wall permeability in Candida albicans 2.2086 assessed as increase in cell wall damage by NPN probe based fluorescence analysis; format: subcellular; conditions: dose 4-128 µM
Cell membrane [7] = assay: Induction of cell membrane damage in Candida albicans assessed as scattered distribution of cell wall and cell membrane structures, loss of integrity and leakage of contents at 16 uM incubated for 1 hr by transmission electron microscopy; format: subcellular
Candida albicans [8] = assay: Antifungal activity against Candida albicans assessed as inhibition of fungal growth incubated for 48 hrs in presence of CaCl2; format: functional, organism-based
[9] = Toxicity against human RBC assessed as hemolysis rate at 128 ug/ml incubated for 1 hr; format: cell-based, Erythrocyte; conditions: red blood cells (RBC), dose 128 µg/ml, read-out: Activity
Candida albicans [10] = assay: Antifungal activity against Candida albicans SP 3903 assessed as inhibition of fungal growth incubated for 48 hrs; format: functional
Candida albicans [11] = assay: Fungicidal killing kinetic activity against fluconazole-resistant Candida albicans 56214 assessed as killing of fungi at 1XMIC to 4XMIC incubated with fungus in PBS solution for 3 mins followed by culturing on YPD plate for 48 hrs; format: functional, organism-based; conditions: time 2883.0 min
Candida albicans [12] = assay: Antifungal activity against Candida albicans assessed as inhibition of fungal growth incubated for 48 hrs in presence of ZnCl2; format: functional, organism-based
[13] = Drug localization in Candida albicans cell membrane using FITC-labeled compound at 8 uM incubated for 3 hrs by DAPI staining based fluorescence microscopy; format: ADME, cell membranes
Candida albicans [14] = assay: (§1) Antifungal activity against fluconazole-resistant Candida albicans 56214 infected in ICR mouse assessed as reduction in severity of skin infection at 5 mg/ml administered topically bid for 3 days starting at 12 hrs post-infection and measured after 7 days by PAS staining based analysis; format: functional, organism-based; conditions: time 7.0 day
HEK-293T [15] = assay: Cytotoxicity against human HEK293T cells assessed as damage to cells at 4XMIC incubated for 8 hrs by Calcein-AM/PI staining based fluorescence microscopy; format: toxicity, cell-based
Candida albicans [16] = assay: Antifungal activity against fluconazole-resistant Candida albicans 56214 infected in ICR mouse assessed as log reduction in fungal burden on the infected skin at 5 mg/ml administered topically bid for 3 days starting at 12 hrs post-infection and measured after 7 days; format: functional; conditions: time 7 day
Candida albicans [17] = assay: Antifungal activity against Candida albicans SP 3902 assessed as inhibition of fungal growth incubated for 48 hrs; format: functional
Candida albicans [18] = assay: Antifungal activity against Candida albicans assessed as inhibition of fungal growth incubated for 48 hrs in presence of NaCl; format: functional, organism-based
Candida albicans [19] = assay: Antifungal activity against Candida albicans assessed as inhibition of fungal growth incubated for 48 hrs in presence of KCl; format: functional, organism-based
Candida albicans [20] = assay: Antifungal activity against fluconazole-resistant Candida albicans 56214 infected in ICR mouse assessed as reduction in TNF-alpha expression in skin wound at 5 mg/ml administered topically bid for 3 days starting at 12 hrs post-infection and measured after 7 days by immunofluorescence analysis; format: functional, organism-based; conditions: time 7.0 day
Candida albicans [21] = assay: as §1, with “in oxidative stress by measuring decrease in ROS accumulation in” for “in severity of”, “skin wounds” for “skin infection”, “by fluorescence” for “by PAS”; format: functional, organism-based; conditions: time 7.0 day
Candida albicans [22] = assay: Antifungal activity against Candida albicans assessed as inhibition of fungal growth compound preincubated with upto 4 mg/ml trypsin for 4 hrs followed by incubation with fungus for 48 hrs; format: functional, organism-based
Candida albicans [23] = assay: Antifungal activity against Candida albicans assessed as inhibition of fungal growth preincubated with 8 mg/ml proteinase K for 8 hrs followed by incubation with fungus for 48 hrs; format: functional, organism-based
RAW264.7 = assay: Cytotoxicity against mouse RAW264.7 cells assessed as damage to cells at 4XMIC incubated for 8 hrs by Calcein-AM/PI staining based fluorescence microscopy; format: toxicity, cell-based; conditions: raw264.7, 8 h
Cell membrane [24] = assay: Induction of cell membrane damage in Candida albicans assessed as scattered distribution of cell wall and cell membrane structures, loss of integrity and leakage of contents at 16 uM incubated for 1 hr by scanning electron microscopy; format: subcellular
Candida albicans [25] = assay: Fungicidal activity against fluconazole-resistant Candida albicans 56214 assessed as killing effect by measuring orange fluorescence at 8 uM incubated for 1 hr by SYTO9/PI staining based fluorescence microscopy; format: functional
Candida albicans [26] = assay: Antifungal activity against Candida albicans assessed as inhibition of fungal growth preincubated with 4 mg/ml trypsin for 8 hrs followed by incubation with fungus for 48 hrs; format: functional, organism-based
[27] = Drug localization in Candida albicans cell membrane using FITC-labeled compound by FITC/PI staining based confocal microscopy; format: ADME, cell membranes
Candida albicans [28] = assay: Antifungal activity against fluconazole-resistant Candida albicans 56214 infected in ICR mouse assessed as elimination of fungal hyphae on the infected skin at 5 mg/ml administered topically bid for 3 days starting at 12 hrs post-infection and measured after 7 days by PAS staining; format: functional, organism-based; conditions: time 7.0 day
Candida albicans [29] = assay: Antifungal activity against Candida albicans 17546 assessed as inhibition of fungal growth incubated for 48 hrs; format: functional
Candida albicans [30] = assay: Antifungal activity against Candida albicans assessed as inhibition of fungal growth incubated for 48 hrs in presence of FeCl3; format: functional, organism-based
Candida albicans [31] = assay: Antifungal activity against Candida albicans assessed as inhibition of fungal growth preincubated with 8 mg/ml chymotrypsin for 8 hrs followed by incubation with fungus for 48 hrs; format: functional, organism-based
HEK-293T [32] = assay: Cytotoxicity against human HEK293T cells assessed as cell viability at 8 to 128 ug/ml incubated for 4 hrs by MTT assay; format: toxicity, cell-based; conditions: dose 8-128 µg/ml
Candida albicans [33] = assay: Antifungal activity against fluconazole-resistant Candida albicans 56214 infected in ICR mouse assessed as wound healing with appearance of new skin tissue at 5 mg/ml administered topically bid for 3 days starting at 12 hrs post-infection and measured for 6 days; format: functional, organism-based; conditions: time 6.0 day
Candida albicans [34] = assay: Antifungal activity against Candida albicans cgmcc 2.2086 assessed as inhibition of fungal growth incubated for 48 hrs; format: functional
Cell wall [35] = assay: Induction of cell wall permeability in Candida albicans 2.2086 at 16 uM by NPN probe based fluorescence analysis; format: subcellular
Candida albicans [36] = assay: Antifungal activity against Candida albicans 58288 assessed as inhibition of fungal growth incubated for 48 hrs; format: functional
[37] = Cytotoxicity against human HEK293T cells assessed as cell survival rate at 128 ug/ml incubated for 4 hrs by MTT assay; format: toxicity, cell-based, HEK-293T; conditions: dose 128 µg/ml, read-out: Activity
Candida albicans [38] = assay: Antifungal activity against Candida albicans assessed as inhibition of fungal growth compound preincubated with upto 8 mg/ml chymotrypsin for 4 hrs followed by incubation with fungus for 48 hrs; format: functional, organism-based
Candida albicans [39] = assay: Fungicidal activity against fluconazole-resistant Candida albicans 56214 assessed as killing effect within biofilms by measuring increase in red fluorescence intensity at 8 uM incubated for 3 hrs by SYTO9/PI staining based fluorescence microscopy; format: functional
Candida albicans [40] = assay: Antifungal activity against fluconazole-resistant Candida albicans 56214 infected in ICR mouse assessed as reduction in IL-6 expression in skin wound at 5 mg/ml administered topically bid for 3 days starting at 12 hrs post-infection and measured after 7 days by immunofluorescence analysis; format: functional, organism-based; conditions: time 7.0 day
Candida albicans [41] = assay: Inhibition of biofilm formation of fluconazole-resistant Candida albicans 56214 at 8 uM incubated for 48 hrs by crystal violet staining based analysis; format: functional
Candida albicans [42] = assay: Antifungal activity against Candida albicans SP 3931 assessed as inhibition of fungal growth incubated for 48 hrs; format: functional
Candida albicans [43] = assay: Antifungal activity against Candida albicans assessed as inhibition of fungal growth compound preincubated with upto 8 mg/ml proteinase K for 4 hrs followed by incubation with fungus for 48 hrs; format: functional, organism-based
Cell membrane [44] = assay: Disruption of cytoplasmic membrane in Candida albicans 2.2086 assessed as increase in membrane depolarization at 1XMIC by diSC3-5 dye based potentiometric analysis
Candida albicans [45] = assay: Antifungal activity against Candida albicans assessed as inhibition of fungal growth incubated for 48 hrs in presence of NH4Cl; format: functional, organism-based
Candida albicans [46] = assay: Antifungal activity against fluconazole-resistant Candida albicans 56214 assessed as inhibition of fungal growth incubated for 48 hrs; format: functional
Candida albicans [47] = assay: Antifungal activity against Candida albicans 14936 assessed as inhibition of fungal growth incubated for 48 hrs; format: functional
Candida albicans [48] = assay: Induction of ROS production in Candida albicans 2.2086 assessed as increase in intracellular ROS accumulation at <4 uM incubated for 1 hr by DCFH-DA staining based fluorescence analysis; format: functional, organism-based

SMILES: CCCC(=O)NCC(=O)NCC(=O)NCC(=O)N[C@@H](CCCCNC(=O)[C@@H]1CCCN1C(=O)[C@H](CCCNC(=N)N)NC(=O)[C@@H]1CCCN1C(=O)[C@H](CCCNC(=N)N)NC(=O)[C@@H]1CCCN1C(=O)[C@@H](N)CCCNC(=N)N)C(=O)N[C@@H](CCCCNC(=O)[C@@H]1CCCN1C(=O)[C@H](CCCNC(=N)N)NC(=O)[C@@H]1CCCN1C(=O)[C@H](CCCNC(=N)N)NC(=O)[C@@H]1CCCN1C(=O)[C@@H](N)CCCNC(=N)N)C(=O)N[C@@H](CCCNC(=N)N)C(=O)N1CCC[C@H]1C(=O)N[C@@H](CCCNC(=N)N)C(=O)N1CCC[C@H]1C(=O)N[C@@H](CCCNC(=N)N)C(=O)N1CCC[C@H]1C(N)=O (I: Butyryl-GGGKKRPRPRP-NH2 / II: H-RPRPRP / III: H-RPRPRP; amide I:4-II:C, I:5-III:C)
- Activity (Candida albicans [1]): Active
- Activity (Cell membrane [2]): Active
- Activity (Candida albicans [3]): Active
- Drug uptake [4]: Active
- MIC (Candida albicans [5]): 4 µM (≈ 11.2 µg/mL)
- Activity (Cell wall [6]): Dose-dependent-effect
- Activity (Cell membrane [7]): Active
- Activity (Candida albicans [8]): Active
- hemolysis at 1 h, 128 ug/ml [9]: < 2%
- MIC (Candida albicans [10]): 4 µM (≈ 11.2 µg/mL)
- Activity (Candida albicans [11]): Active
- Activity (Candida albicans [12]): Active
- Drug uptake [13]: > 90%
- Activity (Candida albicans [14]): Active
- Activity (HEK-293T [15]): Non-toxic
- log(activity) (Candida albicans [16]): ~1.7
- MIC (Candida albicans [17]): 4 µM (≈ 11.2 µg/mL)
- Activity (Candida albicans [18]): Active
- Activity (Candida albicans [19]): Active
- Activity (Candida albicans [20]): Active
- Activity (Candida albicans [21]): Active
- Activity (Candida albicans [22]): Active
- Activity (Candida albicans [23]): Active
- Activity (RAW264.7): Non-toxic
- Activity (Cell membrane [24]): Active
- Activity (Candida albicans [25]): 90%
- Activity (Candida albicans [26]): Active
- Drug uptake [27]: Active
- Activity (Candida albicans [28]): Active
- MIC (Candida albicans [29]): 16 µM (≈ 44.7 µg/mL)
- Activity (Candida albicans [30]): Active
- Activity (Candida albicans [31]): Active
- Activity (HEK-293T [32]): Non-toxic
- Activity (Candida albicans [33]): Active
- MIC (Candida albicans [34]): 4 µM (≈ 11.2 µg/mL)
- Activity (Cell wall [35]): 100%
- MIC (Candida albicans [36]): 8 µM (≈ 22.4 µg/mL)
- viability at 4 h, 128 ug/ml [37]: 95%
- Activity (Candida albicans [38]): Active
- Activity (Candida albicans [39]): >90%
- Activity (Candida albicans [40]): Active
- inhibition at 8 µM (Candida albicans [41]): 100%
- MIC (Candida albicans [42]): 4 µM (≈ 11.2 µg/mL)
- Activity (Candida albicans [43]): Active
- Activity (Cell membrane [44]): Active; Effective Depolarization Observed
- Activity (Candida albicans [45]): Active
- MIC (Candida albicans [46]): 4 µM (≈ 11.2 µg/mL)
- MIC (Candida albicans [47]): 4 µM (≈ 11.2 µg/mL)
- Activity (Candida albicans [48]): Active
